Read-outs that look alike come from different tables or passages of the source.

Experiment [1] addresses T1, NTRK1 (SEQ ID No. 1) recombinant kinase (Homo sapiens, UniProt P04629).
T1 construct: purchased Invitrogen
In words: Recombinant NTRK1 kinase assay (ADP production coupled to pyruvate kinase/lactate dehydrogenase). The experiment is classed as biochemical. To be noted: recombinant NTRK1 4.7 nM, ATP 1 mM. An excerpt:
NTRK1 protein sequence used for screening (SEQ ID No. 1)

Experiment [2] addresses T2, NTRK1 (Homo sapiens, UniProt P04629). In words: SK-N-SH phospho-NTRK1 Western blot. The experiment is classed as cell-based. Set-up: endogenous in cells; host or cells: SK-N-SH (ATCC HTB-11). To be noted: SK-N-SH cells, 4 h compound, NGF 100 ng/mL stimulated; read-out: IC50, inhibition of NTRK1 phosphorylation. On the procedure:
(§1) SK-N-SH cells (catalog #HTB-11) were obtained from the American Type Culture Collection (ATCC; Manassas, Va.). Briefly, SK-N-SH cells were grown in MEM medium supplemented with 10% characterized fetal bovine serum and 1% Penicillin-Streptomycin-L-glutamine solution (Invitrogen, Carlsbad, Calif.) at 37 degrees Celsius, 5% CO2, and 95% humidity. Cells were allowed to expand until reaching 70-95% confluency at which point they were subcultured or harvested for assay use.
Two hundred fifty thousand cells in growth medium were added per well in a 24-well tissue-culture treated plate. The plate was incubated overnight at 37 degrees Celsius, 5% CO2, and 95% humidity. The next day, growth media was aspirated, cells were washed with serum-free MEM media, and one milliliter serum-free MEM media was added per well. A serial dilution of test compound was added to the cells, and plates were incubated for 4 hours at 37 degrees Celsius, 5% CO2, and 95% humidity. Cells were then stimulated for 10 minutes with 100 ng/mL NGF (R&D Systems, Minneapolis, Minn.). […] Phospho-NTRK1 (Tyr674/675) was detected using an antibody from Cell Signaling Technology (Beverly, Mass.), ECL Plus detection reagent (GE Healthcare, Piscataway, N.J.) and a Molecular Devices Storm 840 phosphorimager in fluorescence mode. […] IC50 values were calculated using Prism software (Graphpad, San Diego, Calif.).

Experiment [3] addresses T3, NTRK2 (SEQ ID No. 2) recombinant kinase (Homo sapiens, UniProt Q16620).
T3 construct: purchased Invitrogen
Nature of the experiment: Recombinant NTRK2 kinase assay (ADP production coupled to pyruvate kinase/lactate dehydrogenase). The format is biochemical. The following applies: recombinant NTRK2 4 nM, ATP 1 mM. The text has this:
NTRK2 protein sequence used for screening (SEQ ID No. 2)

The target of another experiment is T4, NTRK2 (Homo sapiens, UniProt Q16620).
T4 construct: endogenous in cells; host or cells: SK-N-SH (ATCC HTB-11), differentiated with 10 µM all-trans retinoic acid
In words: SK-N-SH (retinoic acid differentiated) phospho-NTRK2 Western blot. To be noted: SK-N-SH cells differentiated with all-trans retinoic acid, BDNF 100 ng/mL stimulated; read-out: IC50, inhibition of NTRK2 phosphorylation. The experiment is classed as cell-based. On the procedure:
as §1, with “subcultured. To induce expression of NTRK2, cells were grown in growth medium containing 10 μM all-trans retinoic acid for ten to fourteen days prior to harvesting cells” for “subcultured or harvested”
Two hundred fifty thousand cells differentiated with 10 μM all-trans retinoic acid in growth medium were added per well in a 12-well tissue-culture treated plate. The plate was incubated overnight at 37 degrees Celsius, 5% CO2, and 95% humidity. The next day, growth media was aspirated, cells were washed with serum-free MEM media, and one milliliter serum-free MEM media was added per well. […] Phospho-NTRK2 (Tyr706/707) was detected using an antibody from Cell Signaling Technology (Beverly, Mass.), ECL Plus detection reagent (GE Healthcare, Piscataway, N.J.) and a Molecular Devices Storm 840 phosphorimager in fluorescence mode. […] IC50 values were calculated using Prism software (Graphpad, San Diego, Calif.).

In experiment [4] the target is T2, NTRK1. In words: K562 phospho-NTRK1 Western blot. To be noted: K562 cells, 4 h compound, NGF 100 ng/mL stimulated; read-out: IC50, inhibition of NTRK1 phosphorylation. More on the design: endogenous in cells. The format is cell-based. How it is done:
K562 cells (catalog #CCL-243) were obtained from the American Type Culture Collection (ATCC; Manassas, Va.). Briefly, K562 cells were grown in suspension in IMDM medium supplemented with 10% characterized fetal bovine serum and 1% Penicillin-Streptomycin-L-glutamine solution (Invitrogen, Carlsbad, Calif.) at 37 degrees Celsius, 5% CO2, and 95% humidity. Cells were allowed to expand until reaching one to three million cells per milliliter at which point they were subcultured or harvested for assay use.
One million cells in serum-free IMDM media were added per well in a 24-well tissue-culture treated plate. A serial dilution of test compound was added to cells and plates were incubated for 4 hours at 37 degrees Celsius, 5% CO2, and 95% humidity. Cells were then stimulated for 10 minutes with 100 ng/mL NGF (R&D Systems, Minneapolis, Minn.). Cells pelleted by centrifugation, washed with PBS, then lysed. Cell lysates were separated by SDS-PAGE and transferred to PVDF. Phospho-NTRK1 (Tyr674/675) was detected using an antibody from Cell Signaling Technology (Beverly, Mass.), ECL Plus detection reagent (GE Healthcare, Piscataway, N.J.) and a Molecular Devices Storm 840 phosphorimager in fluorescence mode. Blots were stripped and probed for total NTRK1 using an antibody from Santa Cruz Biotech (Santa Cruz, Calif.). IC50 values were calculated using Prism software (Graphpad, San Diego, Calif.).

The subject of experiment [5] is NIH-3T3 ETV6-NTRK3 xenograft. Nature of the experiment: Transfected NIH-3T3 ETV6-NTRK3 xenograft model, single-agent efficacy. The format is in vivo, Mice. To be noted: 15 mg/kg, PO, BID, p<0.05. An excerpt: Mice were implanted subcutaneously and treatment began on Day 4. Treatments ended on Day 24 after three weeks of treatment.
The target in another experiment is T5, TPM3-NTRK1 (Homo sapiens, UniProt P04629).
T5 construct: chromosomal translocation of the kinase domain of NTRK1, NTRK2, or NTRK3 with a variety of N-terminal fusion partners; TPM3 N-terminal portion (fusion partner, P06753); endogenous in cells; host or cells: KM-12 (NCI DCTD Tumor Repository); also grown as subcutaneous xenograft in mice; the other entry of the earlier key: TPM3 (P06753, Tropomyosin alpha-3 chain)
In words: KM-12 phospho-NTRK1 Western blot. The experiment is classed as cell-based. The following applies: KM-12 cells, 4 h compound; read-out: IC50, inhibition of TPM3-NTRK1 phosphorylation. How it is done:
Briefly, cells were grown in RPMI 1640 media supplemented with 10% characterized fetal bovine serum and 1% Penicillin/Streptomycin/L-glutamine solution (Invitrogen, Carlsbad, Calif.) at 37 degrees Celsius, 5% CO2, and 95% humidity. Cells were allowed to expand until reaching 70-95% confluency at which point they were subcultured or harvested for assay use.
Two hundred fifty thousand cells in growth medium were added per well in a 24-well tissue-culture treated plate. The plate was incubated overnight at 37 degrees Celsius, 5% CO2, and 95% humidity. The next day, a serial dilution of test compound was added to the cells, and plates were incubated for 4 hours at 37 degrees Celsius, 5% CO2, and 95% humidity. Media was then aspirated, cells were washed with PBS, and then lysed. Cell lysates were separated by SDS-PAGE and transferred to PVDF. Phospho-NTRK1 (Tyr674/675) was detected using an antibody from Cell Signaling Technology (Beverly, Mass.), ECL Plus detection reagent (GE Healthcare, Piscataway, N.J.) and a Molecular Devices Storm 840 phosphorimager in fluorescence mode. Blots were stripped and probed for total NTRK1 using an antibody from Santa Cruz Biotech (Santa Cruz, Calif.). IC50 values were calculated using Prism software (Graphpad, San Diego, Calif.).

Experiment [6] has as its system KM-12 TPM3-NTRK1 xenograft. In words: KM-12 TPM3-NTRK1 xenograft model, single-agent efficacy. The experiment is classed as in vivo, Mice. To be noted: PO, BID. An excerpt: Mice were implanted subcutaneously and treatment began on Day 5. Treatments ended on Day 25 after three weeks of treatment.
For experiment [7], the target named is T6, NTRK1 kinase phosphorylation (TPM3-NTRK1) (Homo sapiens, UniProt P04629).
T6 construct: chromosomal translocation of the kinase domain of NTRK1, NTRK2, or NTRK3 with a variety of N-terminal fusion partners; TPM3 N-terminal portion (fusion partner, P06753); endogenous in cells; host or cells: KM-12 (NCI DCTD Tumor Repository); also grown as subcutaneous xenograft in mice; the other entry of the earlier key: TPM3 (P06753, Tropomyosin alpha-3 chain)
Nature of the experiment: KM-12 TPM3-NTRK1 xenograft model, inhibition of NTRK1 phosphorylation in tumors after a single dose. To be noted: KM12, mouse, po; for inhibition at 15 mg/kg: single dose 15 mg/kg PO; for inhibition at 7.5 mg/kg: single oral dose 7.5 mg/kg. The experiment is classed as in vivo, Mice. An excerpt:
Mice were implanted subcutaneously and a single treatment was given on Day 8. At time points after the single oral dose, tumors were resected, frozen, pulverized, and then lysed. Lysates were separated by SDS-PAGE and protein was transferred to PVDF. Phospho-NTRK1 (Tyr674/675) was detected using an antibody from Cell Signaling Technology (Beverly, Mass.), ECL Plus detection reagent (GE Healthcare, Piscataway, N.J.) and a Molecular Devices Storm 840 phosphorimager in fluorescence mode. Blots were stripped and probed for total NTRK1 using an antibody from Santa Cruz Biotech (Santa Cruz, Calif.).

The test system of experiment [8] is Transfected NIH-3T3 ETV6-NTRK3 cells. Nature of the experiment: Transfected NIH-3T3 ETV6-NTRK3 cell proliferation assay (resazurin). The format is cell-based. The following applies: Mus musculus, NIH3T3, 144 h; transfected NIH-3T3 cells, six days, 0.5% FBS; read-out: IC50, inhibition of proliferation, ETV6-NTRK3 transfected NIH-3T3. How it is done:
Transfected NIH-3T3 ETV6-NTRK3 cells were obtained from the laboratory of James Fagin, MD (Memorial Sloan Kettering Cancer Center). Briefly, cells were grown in DMEM media supplemented with 10% characterized fetal bovine serum, 1% Penicillin/Streptomycin/L-glutamine solution (Life Technologies, Carlsbad, Calif.) and 1 μg/mL puromycin (Invitrogen, Carlsbad, Calif.) at 37 degrees Celsius, 5% CO2, and 95% humidity. Cells were allowed to expand until reaching approximately 75% confluency at which point they were subcultured or harvested for assay use.

For experiment [9], the system named is NTRK3 kinase phosphorylation (ETV6-NTRK3). Nature of the experiment: Transfected NIH-3T3 ETV6-NTRK3 xenograft model, inhibition of NTRK3 phosphorylation in tumors after a single dose. The experiment is classed as in vivo, Mice. To be noted: single dose 15 mg/kg PO. An excerpt: Mice were implanted subcutaneously and a single treatment was given on Day 6. At time points after the single oral doses, tumors were resected, frozen, pulverized, and then lysed. Lysates were separated by SDS-PAGE and protein was transferred to PVDF. Phospho-NTRK3 (Tyr516) was detected using an antibody from Cell Signaling Technology (Beverly, Mass.), ECL Plus detection reagent (GE Healthcare, Piscataway, N.J.) and a Molecular Devices Storm 840 phosphorimager in fluorescence mode.

The mark [10] stands for this setting: 3.75 mg/kg, not statistically significant.

T6 sequence (P04629 with tags, fused parts or gaps): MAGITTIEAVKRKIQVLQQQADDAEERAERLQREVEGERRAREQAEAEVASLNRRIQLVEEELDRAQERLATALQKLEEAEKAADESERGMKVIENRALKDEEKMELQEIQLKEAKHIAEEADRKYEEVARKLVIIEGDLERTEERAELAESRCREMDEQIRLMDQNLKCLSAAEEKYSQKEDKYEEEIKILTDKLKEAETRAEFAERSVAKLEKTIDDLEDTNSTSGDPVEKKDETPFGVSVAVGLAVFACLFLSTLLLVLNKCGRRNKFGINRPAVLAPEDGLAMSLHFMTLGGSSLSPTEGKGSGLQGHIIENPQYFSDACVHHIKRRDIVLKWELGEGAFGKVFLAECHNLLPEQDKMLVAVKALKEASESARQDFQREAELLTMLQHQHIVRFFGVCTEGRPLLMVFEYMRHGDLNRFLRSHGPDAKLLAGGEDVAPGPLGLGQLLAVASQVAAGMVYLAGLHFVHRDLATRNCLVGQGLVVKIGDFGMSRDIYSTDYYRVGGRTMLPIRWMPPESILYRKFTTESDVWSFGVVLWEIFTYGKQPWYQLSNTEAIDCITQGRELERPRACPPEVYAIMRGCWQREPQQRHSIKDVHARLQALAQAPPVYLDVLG
T2 sequence (P04629 33-796): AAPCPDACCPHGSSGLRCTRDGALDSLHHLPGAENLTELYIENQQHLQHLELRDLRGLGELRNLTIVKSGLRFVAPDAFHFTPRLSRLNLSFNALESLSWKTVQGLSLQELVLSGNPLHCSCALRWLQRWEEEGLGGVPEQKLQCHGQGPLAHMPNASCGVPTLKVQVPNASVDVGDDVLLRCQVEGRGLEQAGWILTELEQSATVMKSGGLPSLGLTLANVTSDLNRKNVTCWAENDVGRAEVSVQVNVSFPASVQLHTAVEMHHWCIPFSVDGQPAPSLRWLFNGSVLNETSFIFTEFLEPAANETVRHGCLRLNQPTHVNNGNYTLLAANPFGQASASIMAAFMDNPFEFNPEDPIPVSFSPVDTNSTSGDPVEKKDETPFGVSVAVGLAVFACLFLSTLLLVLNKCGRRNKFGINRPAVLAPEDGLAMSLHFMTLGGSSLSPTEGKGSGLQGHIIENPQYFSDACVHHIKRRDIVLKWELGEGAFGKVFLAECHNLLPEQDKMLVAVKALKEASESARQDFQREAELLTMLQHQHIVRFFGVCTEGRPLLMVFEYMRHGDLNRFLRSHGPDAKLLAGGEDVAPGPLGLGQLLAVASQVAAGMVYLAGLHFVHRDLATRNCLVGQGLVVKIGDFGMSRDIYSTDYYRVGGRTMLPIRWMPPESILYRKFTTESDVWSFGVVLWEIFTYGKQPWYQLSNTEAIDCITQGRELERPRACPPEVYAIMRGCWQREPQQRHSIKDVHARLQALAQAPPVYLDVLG
T1 sequence (P04629 with tags, fused parts or gaps): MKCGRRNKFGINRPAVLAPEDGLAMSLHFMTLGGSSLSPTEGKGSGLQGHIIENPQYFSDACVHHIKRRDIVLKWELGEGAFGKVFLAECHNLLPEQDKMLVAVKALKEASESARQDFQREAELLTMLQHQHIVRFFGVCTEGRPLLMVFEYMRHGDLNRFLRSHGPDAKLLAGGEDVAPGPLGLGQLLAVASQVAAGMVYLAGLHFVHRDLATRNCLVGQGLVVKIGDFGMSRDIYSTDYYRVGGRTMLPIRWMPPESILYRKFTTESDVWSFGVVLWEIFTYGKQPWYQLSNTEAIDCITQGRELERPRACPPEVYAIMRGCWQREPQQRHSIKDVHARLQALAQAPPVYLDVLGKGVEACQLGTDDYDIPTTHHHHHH
T4 sequence (Q16620 32-822): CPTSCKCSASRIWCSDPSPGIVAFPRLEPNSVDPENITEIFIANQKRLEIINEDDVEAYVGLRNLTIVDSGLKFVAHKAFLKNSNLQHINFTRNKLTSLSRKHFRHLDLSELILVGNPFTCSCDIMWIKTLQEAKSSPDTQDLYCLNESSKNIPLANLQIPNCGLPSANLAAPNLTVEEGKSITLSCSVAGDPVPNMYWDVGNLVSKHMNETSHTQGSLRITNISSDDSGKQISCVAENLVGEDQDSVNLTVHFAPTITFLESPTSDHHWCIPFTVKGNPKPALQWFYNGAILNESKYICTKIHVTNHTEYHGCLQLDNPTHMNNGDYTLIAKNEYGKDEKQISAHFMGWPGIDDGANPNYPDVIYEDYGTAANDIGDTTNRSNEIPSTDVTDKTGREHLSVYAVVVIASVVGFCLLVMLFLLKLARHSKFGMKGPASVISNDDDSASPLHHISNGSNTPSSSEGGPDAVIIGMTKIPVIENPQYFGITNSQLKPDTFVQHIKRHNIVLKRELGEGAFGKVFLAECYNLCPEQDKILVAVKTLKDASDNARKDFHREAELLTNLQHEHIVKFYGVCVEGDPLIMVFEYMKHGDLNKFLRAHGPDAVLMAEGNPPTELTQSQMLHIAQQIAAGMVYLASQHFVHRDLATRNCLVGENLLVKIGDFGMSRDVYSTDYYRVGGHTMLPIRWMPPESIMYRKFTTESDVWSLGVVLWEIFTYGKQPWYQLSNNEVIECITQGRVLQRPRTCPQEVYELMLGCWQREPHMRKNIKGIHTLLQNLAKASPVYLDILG
T3 sequence (Q16620 with tags, fused parts or gaps): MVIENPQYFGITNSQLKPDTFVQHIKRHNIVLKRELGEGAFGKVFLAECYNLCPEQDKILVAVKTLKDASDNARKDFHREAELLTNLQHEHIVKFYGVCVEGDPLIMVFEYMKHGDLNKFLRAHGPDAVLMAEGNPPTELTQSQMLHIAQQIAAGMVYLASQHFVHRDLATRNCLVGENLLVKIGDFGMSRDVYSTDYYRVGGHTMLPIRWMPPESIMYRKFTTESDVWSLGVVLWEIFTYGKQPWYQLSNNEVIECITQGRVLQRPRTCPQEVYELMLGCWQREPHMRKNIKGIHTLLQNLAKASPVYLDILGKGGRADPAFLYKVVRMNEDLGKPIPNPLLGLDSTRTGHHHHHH

Turning to `O=C(Nc1cc(Oc2cc(F)c(NC(=O)C3(C(=O)Nc4ccc(F)cc4)CC3)cc2F)ccn1)C1CC1` [Compound 1, N-(4-(2-(cyclopropanecarboxamido)pyridin-4-yloxy)-2,5-difluorophenyl)-N′-(4)cyclopropane-1,1-dicarboxamide], the IC50 was 710 pM in experiment [1]; 1000 pM on NTRK1 [2]; 4600 pM in experiment [3]; 240 pM at NTRK2; 690 pM on NTRK1 [4]; 1400 pM at TPM3-NTRK1. Moreover, in [8], the IC50 is 440 pM. In addition, the tumor growth delay in experiment [5] (Day 4 to Day 24) was found to be 26.5 days; in experiment [6] (setting [10]), 4.5 days; in experiment [6] (7.5 mg/kg, Day 5 to Day 25, p<0.05) it was 11.4 days; in [6] (15 mg/kg, Day 5 to Day 25, p<0.05), 17.8 days. The “Day 8 % T/C” value in [5] is listed as 6%. Moreover, the “Day 11 % T/C” value was found to be 39% in [6] (setting [10]); 22% in [6] (7.5 mg/kg, p<0.05); 16% in experiment [6] (15 mg/kg, p<0.05). Further, the inhibition at 15 mg/kg is 79% in [7] (24 hours post dose, read-out: inhibition of NTRK1 phosphorylation) and roughly 95% in experiment [7] (through 18 hours post dose, read-out: inhibition of NTRK1 kinase phosphorylation in vivo). The inhibition at 7.5 mg/kg in experiment [7] (12 hours post dose) is 66%; in experiment [7] (18 hours post dose), 74%; in experiment [7] (24 hours post dose) it was 59%; in experiment [7] (for 8 hours) it was greater than 95%. Further, the “inhibition of NTRK3 phosphorylation” value in experiment [9] (18 hours post dose) amounted to 63%; in [9] (24 hours post dose) it was 23%. Besides, the “inhibition of NTRK3 kinase phosphorylation in vivo” value in [9] (through 12 hours post dose) is given as greater than 95%.

These data come from US20160101090A1, “INHIBITION OF TRK KINASE MEDIATED TUMOR GROWTH AND DISEASE PROGRESSION” (DECIPHERA PHARMACEUTICALS, LLC, priority 2014, published 2016).
